The values below come from patent US12280026B2, “Use of repirinast in the prophylaxis or treatment of renal fibrosis or kidney disease” (ALGERNON PHARMACEUTICALS INC., priority 2018, dated 2025).

The test system of assay [1] is C57BL/6 mice with UUO surgical ligation. Put plainly: Example 1: UUO mice, renal function evaluation (plasma BUN, creatinine). Format: in vivo. The settings on record: for BUN in comparison to control groups, in words / Reduction in levels of BUN compared to vehicle, significance in words: Example 1; for BUN in comparison to control groups, in words: UUO, male C57BL/6 mice, PO QD days 1-14, doses of Table 1; for Reduction in BUN compared to vehicle, in words, post-test not stated: Example 1 text and conclusions, Bemithyl 200, Repirinast 30, Bromantane 20, Telmisartan 5 mg/kg PO QD; for Reduction in levels of BUN compared to vehicle, significance in words: p<0.05, Tamhane post-test, Repirinast 30, Bemithyl 200, Bromantane 20 mg/kg PO QD. How it is done:
(§1) Male 9-12 week old C57BL/6 mice of 23-25 grams body weight were used. All mice were acclimated for a minimum of 5 days prior to the start of the study and housed individually in microisolators throughout the study in a 12:12 light-dark cycle on a standard maintenance mouse chow diet (Harlan Teklad 2018) with food and water given ad libitum. Prior to surgery, all mice were weighed for baseline body weight.
(§2) The UUO surgical intervention was performed according to previously described methods known in the art (Le Meur Y et al., Macrophage accumulation at a site of renal inflammation is dependent on the M-CSF/c-fms pathway, J Leukocyte Biol., 72:530-537; 2002).
(§3) All mice were first anesthetized by intraperitoneal injection with a rodent cocktail (ketamine 10 mg/mL and Xyaline 1 mg/mL) in normal saline (10 μL/g body weight). Pedal reflex and movement of the vibrissae were used to determine the state of unconsciousness. A state of unconsciousness was confirmed after a period of about 5 minutes in all animals. All mice were then shaved on the left side of the abdomen. The shaved area was first swabbed with iodine and then swabbed with alcohol. A vertical incision was made through the skin with a #22 scalpel and the skin was then retracted. A further incision of about 2.5 cm was then made through the peritoneum avoiding any major blood vessels. The peritoneum was then retracted and the left kidney was exposed.
(§4) The left kidney was then brought to the surface by hooking the ureter directly beneath the kidney with sterile forceps and gently manipulating the kidney upward. The ureter was ligated at two points directly below the kidney with 5-0 surgical silk with excess suture cut away and discarded post-ligation. The kidney was then gently placed back to its correct anatomical position and the abdomen was lavaged with 1 mL sterile saline to replenish fluid loss. The peritoneum and then skin were sutured with 5-0 Mersilene, and the incision site was gently wiped with iodine. All mice were then placed individually in clean cages that were set on top of a thermal blanket until recovery at about 30-60 minutes later. In some examples, sham surgery was performed as a control by following all steps of the UUO surgical intervention procedure except ligation.
(§5) Following surgery, the mice were divided into 14 individual study groups of 8 mice each and, following post-surgical recovery, administered a once-daily oral treatment for 14 days. The mice in 12 of the 14 study groups (hereafter known as “treatment groups”) had all received the UUO surgical ligation and were treated individually with a distinct pharmacologic compound as set out in Table 1. The mice in 2 of the 14 study groups were treated individually with a pharmaceutically acceptable vehicle with no active ingredient. The pharmaceutically acceptable vehicle in all groups was 0.5% carboxymethyl cellulose (CMC). All mice were sacrificed with CO2 on post-surgical day 15.
The dose selected for the animal studies was determined by taking the maximum known human daily dose, dividing by the average weight of an adult (˜60-70 kg) to get a human mg/kg dose. Then that number was multiplied by 12 to convert to a mouse dose based on conventional dosing tables. See Nair and Jacob, J Basic Clin Pharm March 2016-May 2016, 7(2):27-31.
Serum collection: A blood sample was then collected from all mice and plasma analyzed for urea nitrogen and creatinine. Plasma was stored at −80° C. for possible future analysis.
Renal Function Evaluation: Renal function and disease progression was evaluated by BUN (blood urea nitrogen) as previously described. The BUN of each study group consisted of the BUN average of all mice in each study group.

Assay [2] in a line: Example 2: UUO mice, mean body weight change following surgery. The class given is in vivo, C57BL/6 mice. The following applies: for Mean Body Weight Change Following Surgery, Day 1 / Mean Body Weight Change Following Surgery, Day 4 / Mean Body Weight Change Following Surgery, Day 7 / Mean Body Weight Change Following Surgery, Day 10 / Mean Body Weight Change Following Surgery, Day 14: UUO, female C57BL/6 mice, PO QD days 1-14, mg/kg: Telmisartan 3, Bemithyl 200, Repirinast 30, Telmisartan+Bemithyl 3+200, Telmisartan+Repirinast 3+30, Cenicriviroc 40, Bromantane 40; for Body weight course after surgery, in words: Example 2, mg/kg PO QD: Repirinast 30, Bemithyl 200, Bromantane 40, Telmisartan+Bemithyl 3+200. As to the method:
(§6) In this example, healthy young female C57BL/6 mice were used for the study. At the commencement of the study, mice were between 9-12 weeks of age, weighing 23-25 g. All the mice were obtained from Charles River Laboratories.
(§7) The mice were maintained in a controlled environment with a temp 70-72° F., humidity 30-70%, with a photo cycle of 12 hours of light and 12 hours of dark. They were provided with Harlan Teklad 2018 standard maintenance mouse chow diet and drinking water ad libitium.
(§8) After five days of acclimatization, the mice were grouped according to their body weight. There were ten groups of ten mice each. Nine groups of ten mice each underwent UUO as described above and the other group of ten mice underwent a sham procedure to serve as a no-surgery control.
(§9) Following surgery, the mice were divided into 10 individual study groups of 10 mice each and, following post-surgical recovery, administered a once-daily oral treatment for 14 days. The mice in 8 of the 10 study groups had all received the UUO surgical ligation and were treated individually with a distinct pharmacologic compound as set out in Table 6. The mice in 2 of the 10 study groups were treated individually with a pharmaceutically acceptable vehicle with no active ingredient. The pharmaceutically acceptable vehicle in all groups was 0.5% carboxymethyl cellulose (CMC). All mice were sacrificed with CO2 on post-surgical day 15.
(§10) The dose selected for the animal studies was determined by taking the maximum known human daily dose, dividing by the average weight of an adult (˜60-70 kg) to get a human mg/kg dose. That number was multiplied by 12 to convert to a mouse dose based on conventional dosing tables. See Nair and Jacob, J Basic Clin Pharm March 2016-May 2016, 7(2):27-31.
Body weight: The body weights were measured on days 1, 4, 7, 10 and 14 using a laboratory balance.
Body weights were measured on post-surgical days 1, 4, 7, 10 and 14 as previously described. The mean body weight change of each study group was calculated using the body weight average of all mice in each study group.

Assay [3] is described as follows: Example 1: UUO mice, mean body weight change following surgery. Format: in vivo. The settings on record: Example 1, mostly post-surgical day 14, male C57BL/6 mice, PO QD days 1-14, doses of Table 1. As to the method: as §1, §2, §3, §4, §5
The dose selected for the animal studies was determined by taking the maximum known human daily dose, dividing by the average weight of an adult (˜60-70 kg) to get a human mg/kg dose. […]
Body weight: The body weights were measured on days 1, 2, 5, 8, 10 and 14 using a laboratory balance.
Body weights were measured on post-surgical days 1, 2, 5, 8, 10 and 14 as previously described. The mean body weight change of each study group was calculated using the body weight average of all mice in each study group.

The subject of assay [4] is C57BL/6 mice with UUO surgical ligation. Put plainly: Example 2: UUO mice, kidney weight evaluation. The settings on record: for Excised Left Kidney: ligated kidney; for Right Kidney (g): unligated kidney. The class given is in vivo. How it is done:
as §6, §7, §8, §9, §10
Kidney weight: The UUO was then examined in situ to ensure that the surgical ligation ties remained patent. Both the ligated (UUO) and non-ligated kidneys were removed for analysis. Weights of both kidneys were measured using a laboratory balance.
The data are presented as the mean obtained from Microsoft Excel or GraphPad Prism version 5.00 for Windows (GraphPad Software, San Diego California USA). Data were analyzed using two-way ANOVA using Bonferroni and Tamhane post-tests. Differences between groups were considered significant at p<0.05.
Kidney Weight Evaluation: Kidney weight, which indicates functional and pathological changes in the kidney, was evaluated by measuring the weight of both the ligated (UUO) and non-ligated kidneys as previously described. The ligated and non-ligated kidney weights of each study group consisted of the respective kidney weight averages of all mice in each study group.

Where [5] appears, read: ligated kidney drained, group mean, UUO, female C57BL/6 mice, PO QD days 1-14, mg/kg: Telmisartan 3, Bemithyl 200, Repirinast 30, Telmisartan+Bemithyl 3+200, Telmisartan+Repirinast 3+30, Cenicriviroc 40, Bromantane 40.
Setting [6] is: group mean, UUO, female C57BL/6 mice, PO QD days 1-14, mg/kg: Telmisartan 3, Bemithyl 200, Repirinast 30, Telmisartan+Bemithyl 3+200, Telmisartan+Repirinast 3+30, Cenicriviroc 40, Bromantane 40.

Entries after “also recorded” stand apart in the source; their conditions may differ. Marks after values point to notes of the source that are not given here.

For `CCSc1nc2ccccc2[nH]1` [Bemithyl, 2-Ethylsulfanyl-1H-benzoimidazole], in assay [1], the “BUN in comparison to control groups, in words” value was “less renal dysfunction and disease progression than the positive control treatment; also recorded: decreased in comparison to the sham surgery control group; also recorded: most improved renal function of all”; the “Reduction in BUN compared to vehicle, in words, post-test not stated” value (from here on “Reduction in BUN … post-test not stated”) is “reduction in BUN compared to vehicle”; the “Reduction in levels of BUN compared to vehicle, significance in words” value is recorded as “significant reductions in the levels of BUN”. For the same compound, in assay [2], the “Mean Body Weight Change Following Surgery, Day 1” value is listed as 0 g; the “Mean Body Weight Change Following Surgery, Day 4” value came out at 0.16 g; the “Mean Body Weight Change Following Surgery, Day 7” value was found to be 0.16 g; the “Mean Body Weight Change Following Surgery, Day 10” value worked out at 0.36 g. Also, in assay [2], the “Mean Body Weight Change Following Surgery, Day 14” value worked out at 0.54 g and the “Body weight course after surgery, in words” value is recorded as “no initial decrease in body weight; also recorded: even greater than that of the sham surgery control group; also recorded: appeared to reverse the negative effects of UUO on body weight gain”. In addition, the “Mean body weight change, comparison with control groups, in words” value in assay [3] is listed as “even greater than that of the sham surgery control group; also recorded: appeared to reverse the negative effects of UUO on body weight gain”. Further, in assay [4] (Example 2, Telmisartan 3 + Repirinast 30 mg/kg, Bemithyl 200 mg/kg), the “Weight of the drained left kidney compared to the vehicle group, in words” value was “a similar effect was observed”. Also, in assay [4] (setting [5]), the “Drained Left Kidney” value was determined as 0.1565 g. In assay [4] (setting [6]), the “Excised Left Kidney” value is given as 0.398 g and the “Right Kidney (g)” value was 0.1333* g.
In the case of `Brc1ccc(NC2C3CC4CC(C3)CC2C4)cc1` (stereo not drawn) [Bromantane, N-(4-Bromophenyl)adamantan-2-amine], in assay [1], the “BUN in comparison to control groups, in words” value is “less renal dysfunction and disease progression than the positive control treatment; also recorded: decreased in comparison to the sham surgery control group”; the “Reduction in BUN … post-test not stated” value was “significant reductions in BUN compared to vehicle”; the “Reduction in levels of BUN compared to vehicle, significance in words” value was “significant reductions in the levels of BUN”. Moreover, in assay [2], the “Mean Body Weight Change Following Surgery, Day 1” value is on record as 0 g; the “Mean Body Weight Change Following Surgery, Day 4” value is recorded as 0.11 g; the “Mean Body Weight Change Following Surgery, Day 7” value was 0.36 g; the “Mean Body Weight Change Following Surgery, Day 10” value came to 0.15 g. For the same compound, in assay [2], the “Mean Body Weight Change Following Surgery, Day 14” value is reported as 0.55 g and the “Body weight course after surgery, in words” value was “no initial decrease in body weight; also recorded: appeared to reverse the negative effects of UUO on body weight gain”. Moreover, in assay [3], the “Mean body weight change, comparison with control groups, in words” value is given as “comparable to that of the surgery vehicle control group”. Also, the “Drained Left Kidney” value in assay [4] (setting [5]) is on record as 0.1775 g. Also, in assay [4] (setting [6]), the “Excised Left Kidney” value was 0.3995 g and the “Right Kidney (g)” value is given as 0.143* g.
Turning to `CCCc1nc2c(C)cc(-c3nc4ccccc4n3C)cc2n1Cc1ccc(-c2ccccc2C(=O)O)cc1` [Telmisartan, 2-(4-{[4-Methyl-6-(1-methyl-1H-1,3-benzodiazol-2-yl)-2-propyl-1H-1,3-benzodiazol-1-yl]methyl}phenyl)benzoic acid], the “Reduction in BUN … post-test not stated” value in assay [1] is “did not show a significant reduction; also recorded: the former was not statistically significant”. Also, in assay [2], the “Mean Body Weight Change Following Surgery, Day 1” value amounted to 0 g; the “Mean Body Weight Change Following Surgery, Day 4” value is -0.24 g; the “Mean Body Weight Change Following Surgery, Day 7” value came to 0.39 g; the “Mean Body Weight Change Following Surgery, Day 10” value was 0.45 g. Moreover, in assay [2], the “Mean Body Weight Change Following Surgery, Day 14” value is listed as 0.58 g. Besides, in assay [4] (setting [5]), the “Drained Left Kidney (g)” value is 0.1853* g. In addition, in assay [4] (setting [6]), the “Excised Left Kidney” value is given as 0.411 g and the “Right Kidney (g)” value is reported as 0.1263* g.
